Assay results as given in US20100298141A1, “SUBSTITUTED PYRIDINE N-OXIDE HERBICIDES” (E. I. DU PONT DE NEMOURS AND COMPANY, priority 2007, published 2010).

Tests used:
wheat [1] = test: Test A pre-/postemergence greenhouse test; type: in vivo, Triticum aestivum; conditions: for Wheat plant response rating: 0 to 100 scale; for Plant response rating, Wheat: 0 to 100 scale where 0 is no effect and 100 is complete control
Method in brief: (§1)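 Two application timings were run side by side in the greenhouse. Before emergence, compound went onto the soil surface of loam–sand pots as a directed spray; after emergence, plants at 2–10 cm and the one- to two-leaf stage were treated. Visual injury versus controls was rated at approximately day ten.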

soybean = test: Test C pre-/postemergence test; type: in vivo, Glycine max; conditions: Preemergence; for Soybean plant response rating: 62 g ai/ha, scale 0 to 100; for Plant response rating, Soybean: 31 g ai/ha, scale 0 to 100 (0 no effect, 100 complete control)
Method in brief: (§2)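 Test chemicals were formulated with surfactant in a non-phytotoxic solvent and sprayed both on freshly planted seeds (preemergence) and on 1- to 4-leaf plants of 2–18 cm (postemergence). Flooded-paddy pots received compound directly into 3 cm of standing water, maintained for the test.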

yellow nutsedge = test: Test C pre-/postemergence test; type: in vivo, Cyperus esculentus; conditions: Preemergence; for Nutsedge, Yellow plant response rating: 62 g ai/ha, scale 0 to 100; for Plant response rating, Nutsedge, Yellow: 31 g ai/ha, scale 0 to 100 (0 no effect, 100 complete control)
Method in brief: as §2

catchweed bedstraw = test: Test C pre-/postemergence test; type: in vivo, Galium aparine; conditions: Preemergence; for Plant response rating, Galium: 31 g ai/ha, scale 0 to 100 (0 no effect, 100 complete control); for Plant response rating (0 to 100), Galium: 250 g ai/ha
Method in brief: as §2

bermudagrass = test: Test C pre-/postemergence test; type: in vivo, Cynodon dactylon; conditions: for Plant response rating, Bermudagrass: 31 g ai/ha; for Plant response rating (0 to 100), Bermudagrass: 250 g ai/ha
Method in brief: as §2

morningglory [2] = test: Test C pre-/postemergence test; type: in vivo, Ipomoea coccinea; conditions: Preemergence; for Morningglory plant response rating: 62 g ai/ha, scale 0 to 100; for Plant response rating, Morningglory: 31 g ai/ha, scale 0 to 100 (0 no effect, 100 complete control)
Method in brief: as §2

crabgrass = test: Test A pre-/postemergence greenhouse test; type: in vivo, Digitaria sanguinalis; conditions: for Crabgrass, Large plant response rating: 0 to 100 scale; for Plant response rating, Crabgrass, Large: 0 to 100 scale where 0 is no effect and 100 is complete control
Method in brief: as §1

giant foxtail = test: Test A pre-/postemergence greenhouse test; type: in vivo, Setaria faberi; conditions: for Foxtail, Giant plant response rating: 0 to 100 scale; for Plant response rating, Foxtail, Giant: 0 to 100 scale where 0 is no effect and 100 is complete control
Method in brief: as §1

wheat [3] = test: Test C pre-/postemergence test; type: in vivo, Triticum aestivum; conditions: Preemergence; for Wheat plant response rating: 62 g ai/ha, scale 0 to 100; for Plant response rating, Wheat: 31 g ai/ha, scale 0 to 100 (0 no effect, 100 complete control)
Method in brief: as §2

barnyardgrass = test: Test C flooded paddy test; type: in vivo, Echinochloa crus-galli; conditions: Flood
Method in brief: (§3)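 Compound was added to standing water 3 cm above soil, flood maintained, and plants held in a greenhouse before visual scoring against controls at 13 to 15 days.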

Goosegrass = test: Test C pre-/postemergence test; type: in vivo, Eleusin indica; conditions: Preemergence; for Goosegrass plant response rating: 62 g ai/ha, scale 0 to 100; for Plant response rating, Goosegrass: 31 g ai/ha, scale 0 to 100 (0 no effect, 100 complete control); for Plant response rating (0 to 100), Goosegrass: 250 g ai/ha
Method in brief: as §2

pigweed = test: Test C pre-/postemergence test; type: in vivo, Amaranthus retroflexus; conditions: Preemergence; for Pigweed plant response rating: 62 g ai/ha, scale 0 to 100; for Plant response rating, Pigweed: 31 g ai/ha, scale 0 to 100 (0 no effect, 100 complete control)
Method in brief: as §2

umbrella sedge = test: Test C flooded paddy test; type: in vivo, Cyperus difformis; conditions: Flood
Method in brief: as §3

corn = test: Test A pre-/postemergence greenhouse test; type: in vivo, Zea mays; conditions: for Corn plant response rating: 0 to 100 scale; for Plant response rating, Corn: 0 to 100 scale where 0 is no effect and 100 is complete control
Method in brief: as §1

morningglory [4] = test: Test A pre-/postemergence greenhouse test; type: in vivo, Ipomoea spp.; conditions: for Morningglory plant response rating: 0 to 100 scale; for Plant response rating, Morningglory: 0 to 100 scale where 0 is no effect and 100 is complete control
Method in brief: as §1

Italian ryegrass = test: Test C pre-/postemergence test; type: in vivo, Lolium multiflorum; conditions: Preemergence; for Ryegrass, Italian plant response rating: 62 g ai/ha, scale 0 to 100; for Plant response rating, Ryegrass, Italian: 31 g ai/ha, scale 0 to 100 (0 no effect, 100 complete control)
Method in brief: as §2

[5] = test system: common (oilseed) sunflower; test: Test C pre-/postemergence test; type: in vivo, Helianthus annuus; conditions: Preemergence; for Sunflower plant response rating: 62 g ai/ha, scale 0 to 100; for Plant response rating, Sunflower: 31 g ai/ha, scale 0 to 100 (0 no effect, 100 complete control)
Method in brief: as §2

[6] = Postemergence, 125 g ai/ha, 0 is no effect, 100 is complete control
[7] = Postemergence, 500 g ai/ha, 0 is no effect, 100 is complete control
[8] = Preemergence, 125 g ai/ha, 0 no effect, 100 complete control
[9] = 62 g ai/ha, Preemergence, scale 0 to 100 (0 no effect, 100 complete control)
[10] = Preemergence, scale 0 to 100 (0 no effect, 100 complete control)
[11] = preemergence, 125 g ai/ha, scale 0 (no effect) to 100 (complete control)
[12] = 31 g ai/ha, scale 0 to 100 (0 no effect, 100 complete control)
[13] = 62 g ai/ha, scale 0 to 100, 0 no effect, 100 complete control, 13 to 15 days
[14] = 125 g ai/ha, scale 0 to 100, 0 no effect, 100 complete control, 13 to 15 days
[15] = 250 g ai/ha, scale 0 to 100 (0 no effect, 100 complete control)
[16] = 250 g ai/ha, scale 0 to 100, 0 no effect, 100 complete control, 13 to 15 days

Cn1nc(C(F)(F)F)c(C[S+]([O-])c2ccc(Cl)c[n+]2[O-])c1Cl (racemic) [Compound 17]
Wheat plant response rating (wheat [1]; [6]): 50 | Wheat plant response rating (wheat [1]; [7]): 60 | Wheat plant response rating (wheat [1]; [8]): 50 | Plant response rating, Wheat (wheat [1]; Preemergence, 500 g ai/ha): 80 | Soybean plant response rating (soybean): 20 | Plant response rating, Soybean (soybean): 0 | Nutsedge, Yellow plant response rating (yellow nutsedge): 80 | Plant response rating, Nutsedge, Yellow (yellow nutsedge): 70 | Plant response rating, Galium (catchweed bedstraw): 100 | Plant response rating (0 to 100), Galium (catchweed bedstraw): 100 | Bermudagrass plant response rating (bermudagrass; [9]): 100 | Plant response rating, Bermudagrass (bermudagrass; [10]): 80 | Plant response rating (0 to 100), Bermudagrass (bermudagrass; Preemergence): 100 | Bermudagrass plant response rating (bermudagrass; [11]): 100 | Morningglory plant response rating (morningglory [2]): 85 | Plant response rating, Morningglory (morningglory [2]): 0 | Crabgrass, Large plant response rating (crabgrass; [6]): 80 | Crabgrass, Large plant response rating (crabgrass; [7]): 90 | Crabgrass, Large plant response rating (crabgrass; [8]): 90 | Plant response rating, Crabgrass, Large (crabgrass; Preemergence, 500 g ai/ha): 100 | Foxtail, Giant plant response rating (giant foxtail; [6]): 80 | Foxtail, Giant plant response rating (giant foxtail; [7]): 90 | Foxtail, Giant plant response rating (giant foxtail; [8]): 100 | Plant response rating, Foxtail, Giant (giant foxtail; Preemergence, 500 g ai/ha): 100 | Wheat plant response rating (wheat [3]): 30 | Plant response rating, Wheat (wheat [3]): 10 | Plant response rating, Barnyardgrass (barnyardgrass; [12]): 20 | Plant response rating, Barnyardgrass (barnyardgrass; [13]): 65 | Plant response rating, Barnyardgrass (barnyardgrass; [14]): 85 | Plant response rating, Barnyardgrass (barnyardgrass; [15]): 85 | Goosegrass plant response rating (Goosegrass): 100 | Plant response rating, Goosegrass (Goosegrass): 100 | Plant response rating (0 to 100), Goosegrass (Goosegrass): 100 | Pigweed plant response rating (pigweed): 100 | Plant response rating, Pigweed (pigweed): 100 | Plant response rating, Sedge, Umbrella (umbrella sedge; [12]): 60 | Plant response rating, Sedge, Umbrella (umbrella sedge; [13]): 85 | Plant response rating, Sedge, Umbrella (umbrella sedge; [14]): 95 | Plant response rating, Sedge, Umbrella (umbrella sedge; [16]): 95 | Corn plant response rating (corn; [6]): 50 | Corn plant response rating (corn; [7]): 60 | Corn plant response rating (corn; [8]): 0 | Plant response rating, Corn (corn; Preemergence, 500 g ai/ha): 80 | Morningglory plant response rating (morningglory [4]; [6]): 10 | Morningglory plant response rating (morningglory [4]; [7]): 50 | Morningglory plant response rating (morningglory [4]; [8]): 10 | Plant response rating, Morningglory (morningglory [4]; Preemergence, 500 g ai/ha): 90 | Ryegrass, Italian plant response rating (Italian ryegrass): 60 | Plant response rating, Ryegrass, Italian (Italian ryegrass): 30 | Sunflower plant response rating [5]: 5 | Plant response rating, Sunflower [5]: 0

Cc1cc[n+]([O-])c([S+]([O-])Cc2c(C(F)(F)F)nn(C)c2Cl)c1 (racemic) [Compound 20]
Wheat plant response rating (wheat [1]; [6]): 0 | Wheat plant response rating (wheat [1]; [7]): 60 | Wheat plant response rating (wheat [1]; [8]): 30 | Plant response rating, Wheat (wheat [1]; Preemergence, 500 g ai/ha): 80 | Soybean plant response rating (soybean): 0 | Plant response rating, Soybean (soybean): 0 | Nutsedge, Yellow plant response rating (yellow nutsedge): 10 | Plant response rating, Nutsedge, Yellow (yellow nutsedge): 0 | Galium plant response rating (catchweed bedstraw; 62 g ai/ha, scale 0 to 100): 85 | Plant response rating, Galium (catchweed bedstraw): 80 | Plant response rating (0 to 100), Galium (catchweed bedstraw): 100 | Bermudagrass plant response rating (bermudagrass; [9]): 85 | Plant response rating, Bermudagrass (bermudagrass; [10]): 55 | Plant response rating (0 to 100), Bermudagrass (bermudagrass; Preemergence): 100 | Bermudagrass plant response rating (bermudagrass; [11]): 100 | Morningglory plant response rating (morningglory [2]): 85 | Plant response rating, Morningglory (morningglory [2]): 0 | Crabgrass, Large plant response rating (crabgrass; [6]): 40 | Crabgrass, Large plant response rating (crabgrass; [7]): 80 | Crabgrass, Large plant response rating (crabgrass; [8]): 80 | Plant response rating, Crabgrass, Large (crabgrass; Preemergence, 500 g ai/ha): 100 | Foxtail, Giant plant response rating (giant foxtail; [6]): 50 | Foxtail, Giant plant response rating (giant foxtail; [7]): 80 | Foxtail, Giant plant response rating (giant foxtail; [8]): 80 | Plant response rating, Foxtail, Giant (giant foxtail; Preemergence, 500 g ai/ha): 100 | Wheat plant response rating (wheat [3]): 70 | Plant response rating, Wheat (wheat [3]): 0 | Plant response rating, Barnyardgrass (barnyardgrass; [12]): 0 | Plant response rating, Barnyardgrass (barnyardgrass; [13]): 0 | Plant response rating, Barnyardgrass (barnyardgrass; [14]): 30 | Plant response rating, Barnyardgrass (barnyardgrass; [15]): 70 | Goosegrass plant response rating (Goosegrass): 100 | Plant response rating, Goosegrass (Goosegrass): 85 | Plant response rating (0 to 100), Goosegrass (Goosegrass): 100 | Pigweed plant response rating (pigweed): 100 | Plant response rating, Pigweed (pigweed): 80 | Plant response rating, Sedge, Umbrella (umbrella sedge; [12]): 0 | Plant response rating, Sedge, Umbrella (umbrella sedge; [13]): 0 | Plant response rating, Sedge, Umbrella (umbrella sedge; [14]): 85 | Plant response rating, Sedge, Umbrella (umbrella sedge; [16]): 85 | Corn plant response rating (corn; [6]): 0 | Corn plant response rating (corn; [7]): 70 | Corn plant response rating (corn; [8]): 30 | Plant response rating, Corn (corn; Preemergence, 500 g ai/ha): 60 | Morningglory plant response rating (morningglory [4]; [6]): 40 | Morningglory plant response rating (morningglory [4]; [7]): 60 | Morningglory plant response rating (morningglory [4]; [8]): 70 | Plant response rating, Morningglory (morningglory [4]; Preemergence, 500 g ai/ha): 80 | Ryegrass, Italian plant response rating (Italian ryegrass): 60 | Plant response rating, Ryegrass, Italian (Italian ryegrass): 30 | Sunflower plant response rating [5]: 0 | Plant response rating, Sunflower [5]: 0
